Measured values reported in article PMC11079024, “Identification of a family of species-selective complex I inhibitors as potential anthelmintics” (Nature Communications, 2024).
Several values for one entry are separate records, joined by “and”; a condition that tells them apart may be missing. Identical values can stand only once. Like-named read-outs stand apart in the source and are kept apart here.

Experiments:
[1] = test system: adult H. polygyrus; assay type: cell-based, Heligmosomoides polygyrus; details: aerobic; for Worm viability score of individual worm, scale from 0 (dead) to 3 (motile): single worms
Procedure: After either 24- or 72 h chemical treatment, worm viability was manually scored by an examiner using a scale from 0 (dead) to 3 (motile); DMSO was used as a negative control in both 24- and 72 h treatments. The percentage of affected worms (i.e., worms with a score equal to or lower than 1.5) in each biological replicate is shown; data are from two biological replicates. Within each boxplot, black horizontal lines denote group medians, boxes span from the 25th to the 75th percentile of each group’s distribution, and whiskers extend to the maximum and minimum values.
The eleven benzimidazole derivatives were tested at a concentration of 10 µM under aerobic conditions against L3 and adult H. polygyrus.
For the larval assay, mice feces were collected 2 weeks post-infection and eggs were isolated. The eggs were left on agar at room temperature in the dark for eight to 10 days to allow them to develop into L3. Next, 30–40 L3 were incubated (37 °C, 5% CO2) in the culture medium (RPMI 1640 medium + 1% pen./strep. + 5% amphotericin B) containing the derivatives in 96-well plate (Corning, USA) reaching a final volume of 250 µL for 24 h. For the adult drug screening assay, female NMRI mice were euthanized with CO2 and adult H. polygyrus were dissected out of the intestines. Subsequently, three worms were exposed to the culture medium (RPMI 1640 medium + 1% pen./strep. + 5% amphotericin B) with the derivatives (2 mL) in a 24-well plate (Corning, USA) for either 24 or 72 h. DMSO ( < 1%) served as a negative control in both assays. All conditions were tested in duplicates. Finally, 80 µL of hot water ( ~ 80 °C) for L3 and 500 µL of hot water (~80 °C) for adults were added to the wells to check for their viability under a microscope (Carl Zeiss, Germany). Larvae were categorized as being either alive or dead, depending on whether they moved or not. […] The whole experiment was performed two times i.e., two independent biological replicates for both life stages (L3s and adults) and exposure times (24 and 72 h).

[2] = biological target: M. musculus (heart) complex I (Mus musculus, UniProt P03888+Q91WD5+Q9DC70); assay: biochemical; assay type: biochemical; parameters: Complex I activity, dose-response data: unit not given here; details: for IC50: heart mitochondria
Sequence of M. musculus (heart) complex I (Q91WD5 34-463): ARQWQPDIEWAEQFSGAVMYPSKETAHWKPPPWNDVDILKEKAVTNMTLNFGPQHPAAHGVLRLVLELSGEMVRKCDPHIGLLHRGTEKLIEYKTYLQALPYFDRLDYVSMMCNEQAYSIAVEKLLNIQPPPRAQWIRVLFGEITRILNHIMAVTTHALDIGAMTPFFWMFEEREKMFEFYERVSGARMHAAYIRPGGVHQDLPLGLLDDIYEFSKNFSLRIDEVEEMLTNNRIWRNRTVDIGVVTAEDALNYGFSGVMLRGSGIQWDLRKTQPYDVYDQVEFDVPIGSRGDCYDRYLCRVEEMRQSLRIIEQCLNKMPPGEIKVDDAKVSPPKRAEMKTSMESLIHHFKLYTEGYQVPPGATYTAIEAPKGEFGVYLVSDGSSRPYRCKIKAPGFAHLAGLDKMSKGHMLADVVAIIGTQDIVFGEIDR
Sequence of M. musculus (heart) complex I (Q9DC70 36-224): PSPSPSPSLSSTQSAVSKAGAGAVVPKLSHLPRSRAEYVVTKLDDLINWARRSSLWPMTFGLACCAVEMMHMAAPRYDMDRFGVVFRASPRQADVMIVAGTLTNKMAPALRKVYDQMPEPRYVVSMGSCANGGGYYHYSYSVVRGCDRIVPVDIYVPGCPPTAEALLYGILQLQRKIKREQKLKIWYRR
Sequence of M. musculus (heart) complex I (P03888 whole entry): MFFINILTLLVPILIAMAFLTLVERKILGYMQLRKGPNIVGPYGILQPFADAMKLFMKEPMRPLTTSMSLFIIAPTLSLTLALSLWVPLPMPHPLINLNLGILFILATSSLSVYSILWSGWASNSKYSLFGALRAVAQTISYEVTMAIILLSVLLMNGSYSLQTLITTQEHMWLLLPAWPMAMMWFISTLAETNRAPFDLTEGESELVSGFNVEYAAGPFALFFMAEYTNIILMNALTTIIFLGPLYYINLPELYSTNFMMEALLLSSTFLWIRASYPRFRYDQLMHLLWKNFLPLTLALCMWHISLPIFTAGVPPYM
Procedure: Six 8–10-week-old C57Bl/6 female mice (Charles River) were freshly dissected, and their livers and hearts collected into separate 1.5 mL microcentrifuge tubes. Organs were flash-frozen in liquid nitrogen and stored at −80 °C prior to use. The heart of a freshly slaughtered adult cow was obtained from a local abattoir (Peel Sausage Inc.), chopped into ~1-inch cubes and collected into 50 mL falcon tubes. Falcon tubes were flash-frozen in a container of dry ice and stored at −80 °C prior to use. Isolation of mitochondria from all mammalian tissue was carried out following the protocol described above. However, due to size, the initial homogenization of tissue was performed by 15 strokes in a dounce homogenizer (mouse heart) or with several 5 s pulses in small Nutribullet blender (cow heart). All mouse protocols for mouse care and dissection were reviewed and approved by the University of Toronto Animal Care Committee, in accordance with the Canadian Council on Animal Care.
The enzymatic activities of individual ETC complexes (I-IV) were assessed spectrophotometrically in isolated mitochondria using a Varioskan LUX Multimode plate reader (ThermoFisher Scientific). Mitochondrial pellets previously isolated were thawed on ice and resuspended in ice-cold isolation buffer (250 mM sucrose, 10 mM Tris (pH 7.5), 1 mM EDTA). The BCA assay (Walker, 1994) was used to quantify the protein concentration of mitochondria suspensions; solutions were diluted to a concentration of 0.2 mg/mL for use in all assays. For the complex I assay, mitochondria pellets were freeze-thawed on ice three times to increase enzyme accessibility. […] 20 μL mitochondria suspension was then added/mixed with a pipette to initiate the reaction. Immediately following the addition of mitochondria, absorbance was measured (complex I and II: 600 nm; complex III and IV: 550 nm) in 30 s intervals over 15 min. Enzymatic activity was determined in each reaction by plotting absorbance versus time and calculating the slope of the curve during the initial linear phase of the reaction. […] Percent activity of each complex was calculated by dividing the enzyme-specific activity of each well by the enzyme-specific activity of the corresponding solvent controls.
Chemical solutions were prepared in complex I assay buffer composed of 25 mM KPi buffer (pH 7.5), 3 mg/mL bovine serum albumin (BSA), 80 μM NADH, 60 μM decylubiquinone, 160 μM DCIP, 2 μM antimycin A and 2 mM KCN.
For preliminary screens of hit compounds, compounds were screened at 100 μM; data are the average of at least three biological replicates. The complex I and II activity assays were used for additional dose-response experiments. […] For dose responses of benzimidazole analogs, data represent the average of two biological replicates. For all other dose-responses, data represent the average of at least three biological replicates.

[3] = adult H. polygyrus, in vitro, 72 hours, per biological replicate
[4] = M. musculus (heart) mitochondria, mean of replicates, read-out: percent (%) in vitro complex I activity relative to solvent control
[5] = M. musculus (heart) mitochondria, single replicate, read-out: percent (%) in vitro complex I activity relative to solvent control

SMILES: Clc1ccccc1OCCCCn1cnc2ccccc21 [Compound 7925804]
- effect on adult H. polygyrus viability ([1]; 10 µM, 24-h exposure): potent effects
- Percent Worms Affected (worms with a score equal to or lower than 1.5) ([1]; adult H. polygyrus, in vitro, 24 hours, per biological replicate): 60% and 67%
- Worm viability score of individual worm, scale from 0 (dead) to 3 (motile) ([1]; adult H. polygyrus, in vitro, 24 hours): 1.5 and 2
- # of Worms Affected [1, 3]: 5
- Percent Worms Affected (worms with a score equal to or lower than 1.5) [1, 3]: 100% and 83%
- Worm viability score of individual worm, scale from 0 (dead) to 3 (motile) ([1]; adult H. polygyrus, in vitro, 72 hours): 1.5
- # of Worms Affected ([1]; replicate 1, 24 hours after treatment, worms with score equal to or lower than 1.5): 2
- # of Worms Affected ([1]; replicate 2, 24 hours after treatment, worms with score equal to or lower than 1.5): 4

SMILES: COc1cc2c(cc1OC)C(c1ccc(-c3ccc(Cl)c(Cl)c3)o1)=NCC2 [NPD3577]
- activity at 0.0001 µM ([2]; M. musculus, dose 0.0001 µM, Mean of replicates, read-out: Complex I activity, dose-response data): 99.3%
- Complex I activity, dose-response data ([2]; M. musculus, dose 0.0001 µM, individual replicates (Rep)): 99.760 and 97.530 and 100.984
- activity at 0.0001 µM ([2]; M. musculus, dose 0.0001 µM, individual replicates (Rep), read-out: Complex I activity, dose-response data): 98.7%
- activity at 0.0005 µM ([2]; M. musculus, dose 0.0005 µM, Mean of replicates, read-out: Complex I activity, dose-response data): 99.8%
- Complex I activity, dose-response data ([2]; M. musculus, dose 0.0005 µM, individual replicates (Rep)): 100.720 and 95.586 and 99.617
- activity at 0.0005 µM ([2]; M. musculus, dose 0.0005 µM, individual replicates (Rep), read-out: Complex I activity, dose-response data): 103%
- activity at 0.001 µM ([2]; M. musculus, dose 0.001 µM, Mean of replicates, read-out: Complex I activity, dose-response data): 103%
- Complex I activity, dose-response data ([2]; M. musculus, dose 0.001 µM, individual replicates (Rep)): 108.824 and 94.850 and 104.918
- activity at 0.001 µM ([2]; M. musculus, dose 0.001 µM, individual replicates (Rep), read-out: Complex I activity, dose-response data): 104%
- activity at 0.0025 µM ([2]; M. musculus, dose 0.0025 µM, Mean of replicates, read-out: Complex I activity, dose-response data): 107%
- Complex I activity, dose-response data ([2]; M. musculus, dose 0.0025 µM, individual replicates (Rep)): 111.585 and 102.733 and 109.563
- activity at 0.0025 µM ([2]; M. musculus, dose 0.0025 µM, individual replicates (Rep), read-out: Complex I activity, dose-response data): 103%
- activity at 0.005 µM ([2]; M. musculus, dose 0.005 µM, Mean of replicates, read-out: Complex I activity, dose-response data): 107%
- Complex I activity, dose-response data ([2]; M. musculus, dose 0.005 µM, individual replicates (Rep)): 112.125 and 100.788 and 103.716
- activity at 0.005 µM ([2]; M. musculus, dose 0.005 µM, individual replicates (Rep), read-out: Complex I activity, dose-response data): 109%
- activity at 0.013 µM ([2]; M. musculus, dose 0.013 µM, Mean of replicates, read-out: Complex I activity, dose-response data): 104%
- Complex I activity, dose-response data ([2]; M. musculus, dose 0.013 µM, individual replicates (Rep)): 108.043 and 100.788 and 100.055
- activity at 0.013 µM ([2]; M. musculus, dose 0.013 µM, individual replicates (Rep), read-out: Complex I activity, dose-response data): 107%
- activity at 0.025 µM ([2]; M. musculus, dose 0.025 µM, Mean of replicates, read-out: Complex I activity, dose-response data): 107%
- Complex I activity, dose-response data ([2]; M. musculus, dose 0.025 µM, individual replicates (Rep)): 126.379 and 112.185 and 93.904 and 97.158
- activity at 0.063 µM ([2]; M. musculus, dose 0.063 µM, Mean of replicates, read-out: Complex I activity, dose-response data): 100%
- Complex I activity, dose-response data ([2]; M. musculus, dose 0.063 µM, individual replicates (Rep)): 110.072 and 110.684 and 90.068 and 89.235
- activity at 0.125 µM ([2]; M. musculus, dose 0.125 µM, Mean of replicates, read-out: Complex I activity, dose-response data): 96.8%
- Complex I activity, dose-response data ([2]; M. musculus, dose 0.125 µM, individual replicates (Rep)): 107.614 and 105.282 and 84.971 and 89.399
- activity at 0.313 µM ([2]; M. musculus, dose 0.313 µM, Mean of replicates, read-out: Complex I activity, dose-response data): 197%
- Complex I activity, dose-response data ([2]; M. musculus, dose 0.313 µM, individual replicates (Rep)): 207.614 and 205.282 and 184.971 and 189.399
- activity at 0.625 µM ([2]; M. musculus, dose 0.625 µM, Mean of replicates, read-out: Complex I activity, dose-response data): 297%
- Complex I activity, dose-response data ([2]; M. musculus, dose 0.625 µM, individual replicates (Rep)): 307.614 and 305.282 and 284.971 and 289.399
- activity at 1.5 µM ([2]; M. musculus, dose 1.5 µM, Mean of replicates, read-out: Complex I activity, dose-response data): 397%
- Complex I activity, dose-response data ([2]; M. musculus, dose 1.5 µM, individual replicates (Rep)): 407.614 and 405.282 and 384.971 and 389.399
- activity at 3 µM ([2]; M. musculus, dose 3 µM, Mean of replicates, read-out: Complex I activity, dose-response data): 97.4%
- Complex I activity, dose-response data ([2]; M. musculus, dose 3 µM, individual replicates (Rep)): 96.485 and 88.056 and 108.623 and 96.419
- activity at 15 µM ([2]; M. musculus, dose 15 µM, Mean of replicates, read-out: Complex I activity, dose-response data): 81.9%
- Complex I activity, dose-response data ([2]; M. musculus, dose 15 µM, individual replicates (Rep)): 74.817 and 86.108 and 83.789
- activity at 15 µM ([2]; M. musculus, dose 15 µM, individual replicates (Rep), read-out: Complex I activity, dose-response data): 82.8%
- activity at 37.5 µM ([2]; M. musculus, dose 37.5 µM, Mean of replicates, read-out: Complex I activity, dose-response data): 55.4%
- Complex I activity, dose-response data ([2]; M. musculus, dose 37.5 µM, individual replicates (Rep)): 57.697 and 52.394 and 66.227 and 45.378
- activity at 75 µM ([2]; M. musculus, dose 75 µM, Mean of replicates, read-out: Complex I activity, dose-response data): 50.2%
- Complex I activity, dose-response data ([2]; M. musculus, dose 75 µM, individual replicates (Rep)): 47.944 and 55.928 and 45.443
- activity at 75 µM ([2]; M. musculus, dose 75 µM, individual replicates (Rep), read-out: Complex I activity, dose-response data): 51.4%
- IC50 [2]: 18.8 µM

SMILES: COc1ccc(Cc2nccc3cc(OC)c(OC)cc23)cc1OC [Papaverine, reference compound]
- remaining activity at 0.125 µM [2, 4]: 92.5%
- remaining activity at 0.125 µM [2, 5]: 91.5%
- remaining activity at 0.313 µM [2, 4]: 89.9%
- remaining activity at 0.313 µM [2, 5]: 89.5%
- remaining activity at 0.625 µM [2, 4]: 89.4%
- remaining activity at 0.625 µM [2, 5]: 91.6%
- remaining activity at 1.5 µM [2, 4]: 78.4%
- remaining activity at 1.5 µM [2, 5]: 77.9%
- remaining activity at 3 µM [2, 4]: 63.1%
- remaining activity at 3 µM [2, 5]: 62.6%
- remaining activity at 15 µM [2, 4]: 14.4%
- remaining activity at 15 µM [2, 5]: 15.3%
- remaining activity at 37.5 µM ([2]; 37.5 µM, M. musculus (heart) mitochondria, mean of replicates, read-out: percent (%) in vitro complex I activity relative to solvent control): 4.29%
- remaining activity at 75 µM ([2]; 75 µM, M. musculus (heart) mitochondria, mean of replicates, read-out: percent (%) in vitro complex I activity relative to solvent control): 1.37%
- IC50 [2]: 4.58 µM
